Source: patent US20260365684A1, “PHYTOSPHINGOSINE-3,4-CYCLICPHOSPHATE COMPOUND AND PHARMACEUTICAL COMPOSITION COMPRISING THE SAME” (AXCESO BIOPHARMA CO., LTD., priority 2022, published 2026)

Columns and labels:
[1] = test system: tyrosine hydroxylase (TH); assay: Tyrosine hydroxylase expression in differentiated SH-SY5Y dopaminergic neurons by western blot; assay type: cell-based, human; details: FIG. 6
Method: To analyze the effect on the expression of tyrosine hydroxylase (TH) and α-synuclein as neuron-specific proteins, western blot was performed.
SH-SY5Y cell line was treated with retinoic acid and 12-O-tetradecanoylphorbol-13-acetate (TPA) to induce differentiation into TH-secreting neurons for 6 days.
Differentiated dopaminergic neurons were lysed in PRO-PREP (Intronbio), a cell lysis solution containing protease inhibitor cocktail (Gendepot), and electrophoresed in 10% SDS polyacrylamide gels at 20 μg/well. Transfer was performed using PVDF (Merck millipore) as a membrane, and tyrosine hydroxylase antibody, «-synuclein antibody (Cell signaling), and β-actin antibody (Santa Cruz) were used for reaction for more than 2 hours. Protein expression was detected by staining with ECL substrate (Biorad) for development and graphed using the image J program.

lungs of mice = assay: Acute respiratory distress syndrome induced by CLP: lung histology, lung injury score, wet-to-dry weight ratio; assay type: in vivo, mouse; details: treated at 6 and 16 hours after CLP, lungs harvested at 18 hours
Method: CLP induces pulmonary edema due to increased inflammation and disruption of the vascular barrier, resulting in acute respiratory distress syndrome (ARDS). To determine the effect on ARDS, the compound of formula (1a-1) was treated at 6 and 16 hours after CLP treatment in the same manner as in Experimental Example 7 above, the lungs of mice were harvested at 18 hours for histological analysis, and the wet-to-dry weight ratio of the lungs was obtained. For comparison, mice without CLP treatment served as a control group.
For histologic analysis, the harvested lungs were fixed in 10% paraformaldehyde, infiltrated with paraffin, sectioned into 5 μm-thick tissues, and then de-paraffinized with xylene. Sectioned tissues were mounted on slides, stained with H&E, and observed under an optical microscope. In addition, the lung tissue damage was evaluated by histological score to obtain the lung injury score (LIS) for each group.
To calculate the wet-to-dry weight ratio, lung organs were harvested 18 hours after CLP treatment, and the wet weight was measured immediately after harvesting, and the dry weight was measured after drying in an oven at 60 °C for 48 hours to calculate the wet-to-dry weight ratio. The wet-to-dry weight ratio is used as an indicator of organ edema formation.

SIRT1 = SIRT1 expression in HUVECs by western blot; assay type: cell-based, human
Method: To determine the increase in SIRT1 expression by the compound of formula (1a-1) prepared in Example 1 above in human umbilical vein endothelial cells (HUVECs), HUVECs were seeded at 5×10^5/4 ml in a 60 mm cell culture dish using ECBM2 medium (Promocell) and stabilized for 12 hours in an incubator maintained at 37 °C and 5% CO2, respectively.
The cells were then treated with 10 nM, 100 nM and 1000 nM of the compound of formula (1a-1) prepared in Example 1 above, respectively, and incubated for another 24 hours, and then SIRT1 expression was determined by western blot.

[2] = test system: amyloid beta monomer (monomeric Aβ, mAβ); assay: Expression of mAβ in brain of AD-induced animal model by fluorescence microscopy; assay type: in vivo; details: mouse brain, 1 mg/kg i.p. once every 3 days for 2 weeks, FIG. 3
Method: To determine the therapeutic effect on Alzheimer's Disease (AD), the effects on amyloid beta monomer (monomeric Aβ, mAβ) and Tau protein, which are biomarkers of AD, were analyzed in an AD-induced animal model.
APP/PS/Tau transgenic mice were used as an AD-induced animal model. The compound of formula (1a-1) was administered intraperitoneally once every 3 days at a concentration of 1 mg/kg to 12-week-old transgenic mice for 2 weeks, and the expression of mAβ and Tau proteins in the mouse brain was measured after 1 and 4 weeks. After anesthetizing the mouse, the cervical region was incised with a dissecting tool, and then the occipital region was incised to remove both sides of the skull. The brain was washed with phosphate buffered saline (PBS) and fixed with 4% paraformaldehyde (Sigma, St Louis, MO, USA) for 12 hours at 4 °C. These were cut to a thickness of approximately 10 μm using a vibratome, and hippocampus and cortex sections were collected and placed in 24 wells. PBS was added to the wells containing the fixed tissue sections, and fluorescent nanoparticles (QD565, red fluorescence) conjugated with anti-amyloid antibodies and anti-Tau antibodies (Santa Cruz, USA) were added to each 2 μM, and reacted at 4 °C for 12 hours. The expression of mAβ and Tau was confirmed by fluorescence microscopy.

Compound: CCCCCCCCCCCCCC[C@H]1OP(=O)(O)O[C@H]1[C@@H](N)CO.Cl [formula (1a-1), (4S,5R)-4-((S)-1-amino-2-hydroxyethyl)-2-hydroxy-5-tetradecyl-1,3,2-dioxaphosphoran-2-oxide hydrochloride]
- expression of TH ([1]; differentiated dopaminergic neurons treated with rotenone (RT)): the expression of TH decreased by rotenone was restored
- effectiveness relative to resveratrol (control drug), TH expression ([1]; rotenone-treated differentiated dopaminergic neurons): more effective than resveratrol
- lung tissue damage (histology, H&E) (lungs of mice; FIG. 9A): the lung tissue is almost restored to normal
- lung injury score (LIS) (lungs of mice; FIG. 9B): almost restores the lung injury score to normal
- wet-to-dry weight ratio of the lung (lungs of mice; FIG. 9C): restores the wet-to-dry weight ratio of the lung to normal
- concentration increasing SIRT1 expression relative to that of resveratrol (SIRT1; HUVEC EC50 about 10 nM vs known EC50 of resveratrol approximately […] μM): thousands of times lower than that of resveratrol
- increase in SIRT1 expression (SIRT1; HUVECs, 10 nM, 100 nM and 1000 nM, 24 hours, FIG. 1): increases the expression of SIRT1 even at a very low concentration of 10 nM
- EC50 (SIRT1; Homo sapiens, HUVEC, HUVECs, 24 hours, western blot, read-out: concentration (EC50) that increased the expression of SIRT1 by 50%): ~10 nM
- red fluorescence for mAβ ([2]; 1 week and 4 weeks after): negligible red fluorescence for mAβ and Tau
- expression of amyloid [2]: significantly reduced
